Experimental data published in PubChem BioAssay AID1963834 (Molecular Pharmacology Branch, DTP, NCI, 2024).

System: 873145-292-R-J1-PDC complex spheroid viability
Assay: Anticancer human tumor 873145-292-R-J1-PDC patient-derived renal clear cell carcinoma cell line growth inhibition [POLQ]
Details: for IC50: curve of first compound; for viability, T/C: stronger effect = lower value
Protocol: Multicellular complex tumor spheroid response to Polymerase (POL) inhibitors (novobiocin, ART-558, RP6685) in combination with a variety of drugs and investigational agents in selected tumor cell lines
The POL inhibitors (novobiocin, ART-558, and RP6685) were evaluated both individually and in combination with standard of care and investigational anticancer small molecules within a complex spheroid model of solid tumors. . Complex spheroids include a stromal component modeled by human endothelial cells (HUVEC) and fibroblasts modeled by human mesenchymal stem cells (MSCs). The concentration ranges selected for each drug and investigational agent were based upon clinically achievable concentrations if the clinical Cmax of the agent was known.
Compounds. The drugs and investigational agents: novobiocin (NSC847541), ART-558 (NSC835418), RP-6685 (NSC848927), peposertib (NSC802822), ceralasertib (NSC780249), elimusertib (NSC800525), camonsertib (NSC841442), AZD-1390 (NSC803789), olaparib (NSC753686), talazoparib (NSC767125), rucaparib (NSC756644), sotorasib (NSC818433), MRTX-1133 (NSC836407), SN-38 (NSC673596), topotecan (NSC609699), epotoside (NSC141540), doxorubicin (NSC123127), gemcitabine (NSC613327), 5-fluorouracil (NSC19893), paclitaxel (NSC125973), vemurafenib (NSC761431), MSA-2 (NSC828583), SN-011 (NSC837082), adavosertib (NSC754352), prexasertib (NSC758257), carboplatin (NSC241240) and oxaliplatin (NSC266046), were obtained from the National Cancer Institute (NCI) Developmental Therapeutics Program Chemical Repository (21). The FDA-approved anticancer drug set is available from the Developmental Therapeutics Program at https://dtp.cancer.gov/organization/dscb/obtaining/. […] The stock solutions were prepared in dimethyl sulfoxide (DMSO, Sigma-Aldrich, St. Louis, MO, cat. D2650), except for the platinum compounds which were prepared in saline (Quality Biological, Gaithersburg, MD, cat. 114-055-101), at 800-fold the tested concentration and stored at -70 degrees C prior to their use. All drugs and investigational agents were tested over a range starting from a high concentration at or near the clinical Cmax and decreasing in half-log increments. If the clinical Cmax for an agent had not been determined, the highest concentration tested was 10 microM, except for SN-38, which was tested at a high concentration of 1 microM.
Cell Culture. All cells were maintained in an incubator at 37 degrees C and 5% CO2 with 95% humidity. The PDC lines were cultured according to standard operating procedures established by the NCI PDMR (https://pdmr.cancer.gov). Table 3 of the manuscript, lists the cell lines along with the number of the three cell types plated to form the mct-spheroids and media for tumor cell growth. After thawing, all PDC lines, except 997537-175-T-J1-PDC and 415267-285-R-J2-PDC, were cultured in Matrigel-coated flasks prepared with a working solution of 1X Ham's F-12 nutrient mix, without supplementation (Thermo Fisher Scientific, cat. 11765054), 100 U/mL penicillin-streptomycin (Thermo Fisher Scientific, cat. 15140122), and 2.5% Matrigel (Corning Inc., Corning, NY, cat. 354248) for the first three passages. The two PDC lines 997537-175-T-J1-PDC and 415267-285-R-J2-PDC were cultured on uncoated flasks. The 857933-349-R-J2-PDC line was cultured in 6C/Colon 1B media containing advanced DMEM/F-12 (Thermo Fisher Scientific, cat. 12634028), 10 mM HEPES (Thermo Fisher Scientific, cat. 15630080), 1X GlutaMAX supplement (Thermo Fisher Scientific, cat. 35050061), 0.1 mg/mL primocin (InvivoGen, San Diego, CA, cat. ant-pm-2), 10% defined fetal bovine serum, heat inactivated (HyClone Laboratories Inc., Logan, UT, cat. SH30070.03HI), 50% L-WRN conditioned media (ATCC, cat. CRL-3276), 1.25 mM N-Acetyl-L-cysteine (Sigma-Aldrich, cat. A9165), 10 mM nicotinamide (Sigma-Aldrich, cat. N0636), 1X B-27 supplement (Thermo Fisher Scientific, cat. 17504044), 1X N-2 supplement (Thermo Fisher Scientific, cat. […]

[1] = second compound 0.0316 µM, first compound 0.0316 µM
[2] = second compound 0.0316 µM, first compound 0.1 µM
[3] = second compound 0.0316 µM, first compound 0.316 µM
[4] = second compound 0.0316 µM, first compound 1 µM
[5] = second compound 0.0316 µM, first compound 3.16 µM
[6] = second compound 0.0316 µM, first compound 10 µM
[7] = second compound 0.1 µM, first compound 0.0316 µM
[8] = second compound 0.1 µM, first compound 0.1 µM
[9] = second compound 0.1 µM, first compound 0.316 µM
[10] = second compound 0.1 µM, first compound 1 µM
[11] = second compound 0.1 µM, first compound 3.16 µM
[12] = second compound 0.1 µM, first compound 10 µM
[13] = second compound 0.316 µM, first compound 0.0316 µM
[14] = second compound 0.316 µM, first compound 0.1 µM
[15] = second compound 0.316 µM, first compound 0.316 µM
[16] = second compound 0.316 µM, first compound 1 µM
[17] = second compound 0.316 µM, first compound 3.16 µM
[18] = second compound 0.316 µM, first compound 10 µM
[19] = second compound 1 µM, first compound 0.0316 µM
[20] = second compound 1 µM, first compound 0.1 µM
[21] = second compound 1 µM, first compound 0.316 µM
[22] = second compound 1 µM, first compound 1 µM
[23] = second compound 1 µM, first compound 3.16 µM
[24] = second compound 1 µM, first compound 10 µM
[25] = second compound 3.16 µM, first compound 0.0316 µM
[26] = second compound 3.16 µM, first compound 0.1 µM
[27] = second compound 3.16 µM, first compound 0.316 µM
[28] = second compound 3.16 µM, first compound 1 µM
[29] = second compound 3.16 µM, first compound 3.16 µM
[30] = second compound 3.16 µM, first compound 10 µM
[31] = second compound 10 µM, first compound 0.0316 µM
[32] = second compound 10 µM, first compound 0.1 µM
[33] = second compound 10 µM, first compound 0.316 µM
[34] = second compound 10 µM, first compound 1 µM
[35] = second compound 10 µM, first compound 3.16 µM
[36] = second compound 10 µM, first compound 10 µM
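Also: spheroids exposed to compounds for 7 days before viability readout.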
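For viability, T/C in this document: luminescence signal used as surrogate for viable cell content; 100% = DMSO vehicle control viability.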

For `COc1cc(C2c3cc4c(cc3C(OC3OC5COC(C)OC5C(O)C3O)C3COC(=O)C23)OCO4)cc(OC)c1O` (stereo unspecified) + COC1C(OC(N)=O)C(O)C(Oc2ccc3c(O)c(NC(=O)c4ccc(O)c(CC=C(C)C)c4)c(=O)oc3c2C)OC1(C)C, the IC50 (second compound 0.0316 µM) was greater than 10 µM, the IC50 (second compound 0.1 µM) was greater than 10 µM and the IC50 (second compound 0.316 µM) was greater than 10 µM. The IC50 (second compound 1 µM) was greater than 10 µM, the IC50 (second compound 3.16 µM) was greater than 10 µM and the IC50 (second compound 10 µM) was greater than 10 µM. For the same compound, the viability, T/C [1] was 104%, the viability, T/C [2] was 108% and the viability, T/C [3] was 103%. The viability, T/C [4] was 99.1%, the viability, T/C [5] was 80.3% and the viability, T/C [6] was 57.2%. The viability, T/C [7] was 112%, the viability, T/C [8] was 101% and the viability, T/C [9] was 101%. For the same compound, the viability, T/C [10] was 96.2%, the viability, T/C [11] was 72.5% and the viability, T/C [12] was 53.8%. The viability, T/C [13] was 114%, the viability, T/C [14] was 99.4% and the viability, T/C [15] was 100%. It also gave a viability, T/C [16] of 87.4%, a viability, T/C [17] of 72.9% and a viability, T/C [18] of 54.3%. For the same compound, the viability, T/C [19] was 96.2%, the viability, T/C [20] was 95.5% and the viability, T/C [21] was 101%. The viability, T/C [22] was 86.2%, the viability, T/C [23] was 79% and the viability, T/C [24] was 53.4%. The viability, T/C [25] was 107%, the viability, T/C [26] was 106% and the viability, T/C [27] was 104%. It also gave a viability, T/C [28] of 86.6%, a viability, T/C [29] of 70.9% and a viability, T/C [30] of 57.7%. It also gave a viability, T/C [31] of 103%, a viability, T/C [32] of 103% and a viability, T/C [33] of 95.5%. For the same compound, the viability, T/C [34] was 94.5%, the viability, T/C [35] was 76.7% and the viability, T/C [36] was 67.2%.
With `Nc1ccn(C2OC(CO)C(O)C2(F)F)c(=O)n1` (stereo unspecified) + COC1C(OC(N)=O)C(O)C(Oc2ccc3c(O)c(NC(=O)c4ccc(O)c(CC=C(C)C)c4)c(=O)oc3c2C)OC1(C)C the IC50 (second compound 0.0316 µM) was greater than 10 µM, the IC50 (second compound 0.1 µM) was 1.09 µM and the IC50 (second compound 0.316 µM) was 0.243 µM. For the same compound, the IC50 (second compound 1 µM) was 1.28 µM, the IC50 (second compound 3.16 µM) was 0.36 µM and the IC50 (second compound 10 µM) was greater than 10 µM. The viability, T/C [1] was 59.6%, the viability, T/C [2] was 46.6% and the viability, T/C [3] was 52.2%. It also gave a viability, T/C [4] of 46.5%, a viability, T/C [5] of 54.8% and a viability, T/C [6] of 50.9%. For the same compound, the viability, T/C [7] was 51.2%, the viability, T/C [8] was 57.5% and the viability, T/C [9] was 53.7%. The viability, T/C [10] was 44.2%, the viability, T/C [11] was 51% and the viability, T/C [12] was 43.5%. The viability, T/C [13] was 60.8%, the viability, T/C [14] was 52.9% and the viability, T/C [15] was 47.8%. The viability, T/C [16] was 48.3%, the viability, T/C [17] was 51.4% and the viability, T/C [18] was 46%. It also gave a viability, T/C [19] of 57.8%, a viability, T/C [20] of 54.8% and a viability, T/C [21] of 52.7%. It also gave a viability, T/C [22] of 48.8%, a viability, T/C [23] of 49.6% and a viability, T/C [24] of 48.4%. For the same compound, the viability, T/C [25] was 61.7%, the viability, T/C [26] was 60.2% and the viability, T/C [27] was 50.3%. For the same compound, the viability, T/C [28] was 43.6%, the viability, T/C [29] was 50.7% and the viability, T/C [30] was 52.5%. The viability, T/C [31] was 59.2%, the viability, T/C [32] was 52.4% and the viability, T/C [33] was 52.2%. The viability, T/C [34] was 45.6%, the viability, T/C [35] was 53.6% and the viability, T/C [36] was 53.1%.
`O=C(c1cc(Cc2n[nH]c(=O)c3ccccc23)ccc1F)N1CCN(C(=O)C2CC2)CC1` + COC1C(OC(N)=O)C(O)C(Oc2ccc3c(O)c(NC(=O)c4ccc(O)c(CC=C(C)C)c4)c(=O)oc3c2C)OC1(C)C gave an IC50 (second compound 0.0316 µM) greater than 10 µM, an IC50 (second compound 0.1 µM) greater than 10 µM and an IC50 (second compound 0.316 µM) greater than 10 µM. For the same compound, the IC50 (second compound 1 µM) was greater than 10 µM, the IC50 (second compound 3.16 µM) was greater than 10 µM and the IC50 (second compound 10 µM) was greater than 10 µM. For the same compound, the viability, T/C [1] was 112%, the viability, T/C [2] was 94.8% and the viability, T/C [3] was 106%. The viability, T/C [4] was 97.2%, the viability, T/C [5] was 109% and the viability, T/C [6] was 103%. For the same compound, the viability, T/C [7] was 117%, the viability, T/C [8] was 94.9% and the viability, T/C [9] was 90.8%. It also gave a viability, T/C [10] of 96.2%, a viability, T/C [11] of 92.6% and a viability, T/C [12] of 100%. It also gave a viability, T/C [13] of 106%, a viability, T/C [14] of 97.5% and a viability, T/C [15] of 93.2%. For the same compound, the viability, T/C [16] was 90.8%, the viability, T/C [17] was 103% and the viability, T/C [18] was 93.2%. For the same compound, the viability, T/C [19] was 94.5%, the viability, T/C [20] was 104% and the viability, T/C [21] was 100%. For the same compound, the viability, T/C [22] was 87.2%, the viability, T/C [23] was 101% and the viability, T/C [24] was 103%. The viability, T/C [25] was 108%, the viability, T/C [26] was 107% and the viability, T/C [27] was 106%. For the same compound, the viability, T/C [28] was 94.2%, the viability, T/C [29] was 99.5% and the viability, T/C [30] was 96.2%. The viability, T/C [31] was 88%, the viability, T/C [32] was 103% and the viability, T/C [33] was 96.3%. The viability, T/C [34] was 92.2%, the viability, T/C [35] was 107% and the viability, T/C [36] was 97.2%.
